Key:
[1] = target: Mitogen-activated protein kinase 1 (Homo sapiens) (UniProt P28482); assay: MAPK1 (ERK2) SelectScreen Kinase panel (LifeTechnologies); settings: Compound concentration 1.0 uM
[2] = target: 5-hydroxytryptamine receptor 3A (Homo sapiens) (UniProt P46098); settings: Compound concentration 10.0 uM
[3] = target: Epidermal growth factor receptor (Homo sapiens) (UniProt P00533); assay: EGFR (ErbB1) SelectScreen Kinase panel (LifeTechnologies); settings: Compound concentration 1.0 uM
[4] = target: 5-hydroxytryptamine receptor 1E (Homo sapiens) (UniProt P28566); settings: Compound concentration 10.0 uM
Chain of 5-hydroxytryptamine receptor 1E (Homo sapiens) (P28566 whole entry): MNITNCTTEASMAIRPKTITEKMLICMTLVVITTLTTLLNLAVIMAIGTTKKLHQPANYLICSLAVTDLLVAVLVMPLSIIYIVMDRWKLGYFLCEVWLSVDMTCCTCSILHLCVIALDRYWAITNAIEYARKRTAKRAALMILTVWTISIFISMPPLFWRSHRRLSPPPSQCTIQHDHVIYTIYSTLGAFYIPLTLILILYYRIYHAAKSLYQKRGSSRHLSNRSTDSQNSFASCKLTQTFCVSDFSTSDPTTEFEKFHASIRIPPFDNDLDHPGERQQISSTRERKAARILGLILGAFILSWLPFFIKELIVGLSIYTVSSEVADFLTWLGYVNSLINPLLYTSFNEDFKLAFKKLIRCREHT

[5] = target: D(4) dopamine receptor (Homo sapiens) (UniProt P21917); settings: Compound concentration 10.0 uM
[6] = target: MAP kinase-activated protein kinase 3 (Homo sapiens) (UniProt Q16644); assay: MAPKAPK3 SelectScreen Kinase panel (LifeTechnologies); settings: Compound concentration 1.0 uM
Chain of MAP kinase-activated protein kinase 3 (Homo sapiens) (Q16644 whole entry, looked up): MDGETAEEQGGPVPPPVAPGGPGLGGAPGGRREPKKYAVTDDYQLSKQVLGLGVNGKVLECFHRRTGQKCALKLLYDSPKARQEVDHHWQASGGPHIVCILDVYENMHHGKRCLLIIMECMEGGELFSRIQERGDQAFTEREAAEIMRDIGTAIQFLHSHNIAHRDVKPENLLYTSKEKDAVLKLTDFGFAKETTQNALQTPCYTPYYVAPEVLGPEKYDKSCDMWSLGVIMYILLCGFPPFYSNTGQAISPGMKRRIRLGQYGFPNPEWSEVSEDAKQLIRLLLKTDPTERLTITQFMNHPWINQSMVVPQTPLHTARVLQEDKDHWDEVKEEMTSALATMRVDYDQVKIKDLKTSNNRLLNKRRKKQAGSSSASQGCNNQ

[7] = target: Protein kinase C delta type (Homo sapiens) (UniProt Q05655); assay: PRKCD (PKC delta) SelectScreen Kinase panel (LifeTechnologies); settings: Compound concentration 1.0 uM
Chain of Protein kinase C delta type (Homo sapiens) (Q05655 whole entry, looked up): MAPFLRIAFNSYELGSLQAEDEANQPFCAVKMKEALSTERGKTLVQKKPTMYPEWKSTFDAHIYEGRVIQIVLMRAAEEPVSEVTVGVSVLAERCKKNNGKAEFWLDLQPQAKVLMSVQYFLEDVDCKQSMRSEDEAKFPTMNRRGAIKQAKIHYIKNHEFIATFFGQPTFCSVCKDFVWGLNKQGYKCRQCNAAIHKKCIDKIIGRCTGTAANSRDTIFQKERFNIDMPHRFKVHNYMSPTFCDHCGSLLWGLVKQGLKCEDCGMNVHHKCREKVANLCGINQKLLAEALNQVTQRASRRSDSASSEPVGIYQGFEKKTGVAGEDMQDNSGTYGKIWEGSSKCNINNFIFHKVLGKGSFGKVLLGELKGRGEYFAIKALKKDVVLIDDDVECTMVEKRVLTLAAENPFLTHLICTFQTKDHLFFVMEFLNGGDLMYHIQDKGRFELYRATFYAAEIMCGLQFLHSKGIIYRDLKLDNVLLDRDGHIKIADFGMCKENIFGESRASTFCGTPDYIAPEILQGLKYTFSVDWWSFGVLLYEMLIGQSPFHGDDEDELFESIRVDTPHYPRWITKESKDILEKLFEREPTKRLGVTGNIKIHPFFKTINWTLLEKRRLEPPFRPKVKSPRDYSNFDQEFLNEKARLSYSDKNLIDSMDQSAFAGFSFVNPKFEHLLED

[8] = target: 5-hydroxytryptamine receptor 5A (Homo sapiens) (UniProt P47898); settings: Compound concentration 10.0 uM
Chain of 5-hydroxytryptamine receptor 5A (Homo sapiens) (P47898 whole entry): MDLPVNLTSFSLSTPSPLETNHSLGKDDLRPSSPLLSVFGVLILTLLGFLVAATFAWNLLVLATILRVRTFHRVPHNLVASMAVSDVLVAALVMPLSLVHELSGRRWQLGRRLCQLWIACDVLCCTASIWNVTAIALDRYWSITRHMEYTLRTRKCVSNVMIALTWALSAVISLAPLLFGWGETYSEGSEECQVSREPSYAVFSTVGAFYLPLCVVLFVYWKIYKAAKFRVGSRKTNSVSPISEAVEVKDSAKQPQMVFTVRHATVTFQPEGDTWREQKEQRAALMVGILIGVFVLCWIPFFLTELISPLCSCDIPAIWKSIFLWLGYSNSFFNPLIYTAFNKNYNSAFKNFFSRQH

[9] = target: Beta-3 adrenergic receptor (Homo sapiens) (UniProt P13945); settings: Compound concentration 10.0 uM
Chain of Beta-3 adrenergic receptor (Homo sapiens) (P13945 whole entry, looked up): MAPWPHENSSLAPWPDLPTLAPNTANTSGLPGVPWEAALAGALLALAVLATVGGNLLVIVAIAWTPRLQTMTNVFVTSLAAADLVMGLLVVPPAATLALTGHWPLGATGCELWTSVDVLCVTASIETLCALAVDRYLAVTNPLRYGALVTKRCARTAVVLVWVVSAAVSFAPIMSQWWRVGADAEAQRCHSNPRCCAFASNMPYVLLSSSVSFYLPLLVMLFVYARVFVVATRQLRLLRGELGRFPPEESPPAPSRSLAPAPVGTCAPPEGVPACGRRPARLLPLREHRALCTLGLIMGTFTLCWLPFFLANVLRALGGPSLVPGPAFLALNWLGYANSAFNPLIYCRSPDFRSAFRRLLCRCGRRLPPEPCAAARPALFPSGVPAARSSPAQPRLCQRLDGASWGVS

Histamine H2 receptor = Histamine H2 receptor (Homo sapiens, UniProt P25021); assay: GPCRScan assay: inhibition of H2; parameters: radioligand conc. used [nm] 0.02 – 0.05, parental cells Stable HEK
Chain of Histamine H2 receptor (P25021 whole entry): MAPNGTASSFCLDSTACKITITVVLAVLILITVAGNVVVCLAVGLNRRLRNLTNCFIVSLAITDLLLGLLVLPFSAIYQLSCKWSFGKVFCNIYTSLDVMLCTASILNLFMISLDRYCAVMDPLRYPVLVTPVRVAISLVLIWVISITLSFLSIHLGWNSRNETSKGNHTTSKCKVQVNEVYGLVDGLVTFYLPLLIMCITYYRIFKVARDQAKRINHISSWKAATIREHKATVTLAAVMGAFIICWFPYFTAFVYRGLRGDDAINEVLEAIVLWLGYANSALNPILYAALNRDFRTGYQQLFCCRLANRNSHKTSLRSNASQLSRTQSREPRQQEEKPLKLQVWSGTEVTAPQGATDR

Chain of Mitogen-activated protein kinase 1 (Homo sapiens) (P28482 whole entry): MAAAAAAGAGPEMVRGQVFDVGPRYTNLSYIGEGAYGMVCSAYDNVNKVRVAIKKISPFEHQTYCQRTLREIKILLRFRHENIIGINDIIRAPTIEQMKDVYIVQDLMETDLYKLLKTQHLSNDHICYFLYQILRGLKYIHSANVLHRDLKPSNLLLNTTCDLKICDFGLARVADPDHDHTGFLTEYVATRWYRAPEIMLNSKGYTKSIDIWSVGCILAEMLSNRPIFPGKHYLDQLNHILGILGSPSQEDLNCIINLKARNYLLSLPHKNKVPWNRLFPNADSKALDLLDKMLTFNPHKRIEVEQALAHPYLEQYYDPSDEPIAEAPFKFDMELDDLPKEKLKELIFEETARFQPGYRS
Chain of Epidermal growth factor receptor (Homo sapiens) (P00533 whole entry): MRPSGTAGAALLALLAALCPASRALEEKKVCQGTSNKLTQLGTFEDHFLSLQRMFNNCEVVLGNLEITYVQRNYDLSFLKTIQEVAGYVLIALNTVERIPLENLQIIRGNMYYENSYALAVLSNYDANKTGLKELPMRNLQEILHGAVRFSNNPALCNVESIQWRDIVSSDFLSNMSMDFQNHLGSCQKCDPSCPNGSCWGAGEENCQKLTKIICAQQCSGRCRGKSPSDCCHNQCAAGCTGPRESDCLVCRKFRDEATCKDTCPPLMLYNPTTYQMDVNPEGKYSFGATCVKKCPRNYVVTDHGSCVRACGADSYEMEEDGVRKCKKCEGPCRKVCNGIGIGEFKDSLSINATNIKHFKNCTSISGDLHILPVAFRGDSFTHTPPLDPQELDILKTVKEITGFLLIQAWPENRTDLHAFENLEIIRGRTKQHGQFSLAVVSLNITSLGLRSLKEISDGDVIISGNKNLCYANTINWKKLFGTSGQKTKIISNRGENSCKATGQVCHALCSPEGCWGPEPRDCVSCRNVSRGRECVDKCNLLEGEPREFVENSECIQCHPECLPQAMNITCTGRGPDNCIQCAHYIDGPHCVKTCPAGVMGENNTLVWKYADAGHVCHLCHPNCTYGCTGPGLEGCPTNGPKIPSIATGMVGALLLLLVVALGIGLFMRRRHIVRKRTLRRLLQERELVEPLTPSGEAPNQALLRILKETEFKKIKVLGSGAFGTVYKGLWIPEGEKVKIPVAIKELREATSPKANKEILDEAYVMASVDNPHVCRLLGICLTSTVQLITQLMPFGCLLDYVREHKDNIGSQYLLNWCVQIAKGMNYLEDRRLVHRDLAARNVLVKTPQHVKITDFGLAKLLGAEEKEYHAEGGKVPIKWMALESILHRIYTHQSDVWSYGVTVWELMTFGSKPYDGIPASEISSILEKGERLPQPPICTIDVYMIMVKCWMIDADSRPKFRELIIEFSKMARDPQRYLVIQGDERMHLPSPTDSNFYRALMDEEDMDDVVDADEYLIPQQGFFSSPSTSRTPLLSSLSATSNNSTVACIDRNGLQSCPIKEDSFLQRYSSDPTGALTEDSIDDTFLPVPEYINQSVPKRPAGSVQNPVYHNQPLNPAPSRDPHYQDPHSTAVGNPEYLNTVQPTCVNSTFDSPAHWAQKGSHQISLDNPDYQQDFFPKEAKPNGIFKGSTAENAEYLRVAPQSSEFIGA
Chain of 5-hydroxytryptamine receptor 3A (Homo sapiens) (P46098 whole entry): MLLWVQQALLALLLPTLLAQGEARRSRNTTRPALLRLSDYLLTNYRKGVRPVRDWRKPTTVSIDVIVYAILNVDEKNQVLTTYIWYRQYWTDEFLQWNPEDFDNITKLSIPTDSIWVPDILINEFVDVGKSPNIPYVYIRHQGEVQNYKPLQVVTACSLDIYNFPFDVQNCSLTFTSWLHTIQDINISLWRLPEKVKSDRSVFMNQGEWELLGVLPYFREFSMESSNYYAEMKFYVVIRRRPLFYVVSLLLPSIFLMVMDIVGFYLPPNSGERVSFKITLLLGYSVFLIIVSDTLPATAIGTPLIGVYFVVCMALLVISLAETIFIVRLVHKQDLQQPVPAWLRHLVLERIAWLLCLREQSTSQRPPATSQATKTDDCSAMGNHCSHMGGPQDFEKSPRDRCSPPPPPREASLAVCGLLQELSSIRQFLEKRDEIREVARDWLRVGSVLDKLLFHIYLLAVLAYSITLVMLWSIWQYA

**Q.** Which results are given for `C=CC(=O)Nc1ccc2[nH]c(=O)n(C3CCN(Cc4ccc(-c5nc6cc[nH]c(=O)c6cc5-c5ccccc5)cc4)CC3)c2c1` [Borussertib]?
**A.** inhibition [1]: 3%; inhibition [2]: 30.2%; inhibition [3]: 2%; inhibition [4]: 18%; inhibition [5]: 10%; inhibition [6]: 17%; inhibition [7]: -8%; inhibition [8]: 19.4%; inhibition [9]: 9.68%; Ki (Histamine H2 receptor; read-out: Ki): 0.95 µM; Ki (Histamine H2 receptor; read-out: pKi (converted)): 0.813 µM

Reference: ChEMBL document CHEMBL4800730 (2021)
